Laboratory results taken from patent US12667572B2, “Tricyclic compounds useful in the treatment of cancer, autoimmune and inflammatory disorders” (SCHRÖDINGER, INC., priority 2021, dated 2026).

Experiments:
[1] = test system: IL10 secretion in OCI-LY10 cells; assay: Human IL10 secretion assay, Assay 2 (MSD); format: cell-based; settings: Homo sapiens, 24 h incubation, Meso Scale Discovery, read-out: IL-10 Secretion IC50 [nM] Assay 2
Protocol: IL10 is one of the cytokines that are regulated via activation of NF-kB signaling. For example, in ABC-DLBCL cell lines, the activated NF-kB signaling leads to increased IL10 secretion. Inhibition of NF-kB signaling has been shown leading to decreased IL10 secretion.
Assay 2: OCI-LY10 cells were seeded in IMEM supplemented with 20% fetal bovine serum at 4.8×10^5 cells per 160 μL per well in 96-well V-bottom cell culture plates (corning, 3894), treated with 120 nL of 3-fold serial compound dilutions, starting at 4 mM. The final vehicle concentration was 0.075% DMSO in all wells. After a 24 h incubation, human IL-10 precoated plates (Meso Scale Discovery) were washed 3 times with PBST, and 50 μL culture medium was aspirated into the MSD plate and incubated at 4° C. overnight. The supernatant was then discarded, and the wells were washed 3 times with PB ST. SULFO-TAG Anti-human IL-10 Antibody (50×) was diluted 50-fold according to the Meso Scale Protocol, then 25 μL of SULFO-TAG Anti-human IL-10 Antibody (1×) was added. After 2 h of incubation at RT, the supernatant was discarded, and the well was washed 3 times with PBST. 2×read buffer was added and the signal was read on an MSD Sector S600. The effect of a particular compound on IL10 secretion is shown relative to the effect of DMSO; set as 100%. IC50 values (nM) were determined using 4-parametric curve-fitting.

[2] = target: T1, full-length MALT1 protein His-MALT1(1-824) (Homo sapiens, UniProt Q9UDY8); assay: MALT1 protease assay, Assay 2 (1 nM MALT1, Ac-LRSR-AMC substrate); format: biochemical; settings: 1 nM MALT1, 50 μM Ac-LRSR-AMC, 2 h pre-incubation, 8 hr incubation at RT
T1 construct: full-length MALT1 protein His-MALT1(1-824); His (N); made in house; host or cells: baculovirus-infected insect cells
T1 sequence (Q9UDY8 1-824): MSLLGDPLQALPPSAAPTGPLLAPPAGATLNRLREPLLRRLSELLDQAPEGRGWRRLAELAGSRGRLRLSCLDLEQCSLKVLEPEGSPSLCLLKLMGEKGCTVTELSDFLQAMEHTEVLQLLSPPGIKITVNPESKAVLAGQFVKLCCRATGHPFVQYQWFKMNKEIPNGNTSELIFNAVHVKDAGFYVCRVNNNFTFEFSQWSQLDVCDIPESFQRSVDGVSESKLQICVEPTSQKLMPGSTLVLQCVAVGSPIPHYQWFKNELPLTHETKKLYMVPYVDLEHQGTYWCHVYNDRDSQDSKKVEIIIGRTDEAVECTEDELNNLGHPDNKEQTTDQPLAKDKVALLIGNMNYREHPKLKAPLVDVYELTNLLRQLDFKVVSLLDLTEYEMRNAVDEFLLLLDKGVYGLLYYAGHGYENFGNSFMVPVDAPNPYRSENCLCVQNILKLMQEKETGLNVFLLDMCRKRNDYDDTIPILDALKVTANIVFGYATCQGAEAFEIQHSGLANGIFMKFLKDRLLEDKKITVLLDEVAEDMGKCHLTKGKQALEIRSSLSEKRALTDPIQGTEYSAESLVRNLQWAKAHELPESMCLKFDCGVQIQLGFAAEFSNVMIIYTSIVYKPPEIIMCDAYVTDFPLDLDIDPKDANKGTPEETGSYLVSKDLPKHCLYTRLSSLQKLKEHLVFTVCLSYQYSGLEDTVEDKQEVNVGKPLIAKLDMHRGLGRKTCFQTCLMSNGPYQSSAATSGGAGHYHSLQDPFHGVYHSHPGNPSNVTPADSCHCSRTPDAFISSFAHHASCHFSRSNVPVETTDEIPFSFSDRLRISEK
In short: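 Full-length His-MALT1(1-824) from baculovirus-infected insect cells, pre-incubated with compound 2 h at RT (0.1% DMSO). Then 50 μM Ac-LRSR-AMC added. Buffer was Tris pH 7.5 with 600 mM sodium citrate, DTT, EDTA and BSA. Fluorescence (ex 355/em 460 nm) was read after 8 h at RT and normalized to high/low controls. IC50 from non-linear regression.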

[3] = target: T1, full-length MALT1 protein His-MALT1(1-824); assay: MALT1 protease assay, Assay 1 (2 nM MALT1, Ac-LRSR-AMC substrate); format: biochemical; settings: 2 nM MALT1, 50 μM Ac-LRSR-AMC, 2 h pre-incubation, 8 hr incubation at RT
Protocol: MALT1 protease activity was assessed in an in vitro assay using a tetrapeptide as substrate and full-length MALT1 protein His-MALT1(1-824) purified from baculovirus-infected insect cells. The tetrapeptide substrate is Ac-LRSR-AMC (SM Biochemicals) with Km measured at around 100 μM.
The final assay buffer includes 1 nM (Assay 2) or 2 nM (Assay 1) of MALT1 full-length protein, 50 μM Ac-LRSR-AMC substrate, 50 mM Tris pH 7.5, 600 mM Sodium Citrate, 1 mM DTT, 1 mM EDTA, and 0.05% BSA in 384-well plate format using black microtiter square well plates (Optiplate 384-F, Perkin Elmer).
Test compounds were dissolved in 100% DMSO at stock of 10 mM, with final DMSO concentration 0.1%. Test compounds were pre-incubated with MALT1 protein for 2 h at room temperature. Substrate was added after the pre-incubation and fluorescence signal was measured using Envision at excitation 355 nm and emission 460 nm after 8 hr incubation at RT. Increase in the assay signal was linear over this period and proportional with increase in the enzyme content.
The fluorescence units were transformed to percentage of remaining activity by using the high control (HC, median of fluorescence signal from wells containing MALT1 protein, substrate, and DMSO) and low control (LC, median of fluorescence signal from wells with substrate only) with the formula below: […]
IC50 and Hill coefficients were obtained using Graph Pad Prism (Graph Pad software, Inc, USA) with non-linear regression analysis.

C[C@@H](O)c1cnn(-c2ncc(NC(=O)[C@H]3CC(C)(C)c4c3cnc3cc(Cl)nn43)cc2Cl)n1 (single isomer, unassigned) [Example 51, 2-chloro-N-(5-chloro-6-(4-(1-hydroxyethyl)-2H-1,2,3-triazol-2-yl)pyridin-3-yl)-8,8-dimethyl-7,8-dihydro-6H-cyclopenta[e]pyrazolo[1,5-a]pyrimidine-6-carboxamide]
IC50 [1]: 100 to 1000 nM | IC50 [2]: < 10 nM

O=C(Nc1cnc(-n2nccn2)c(Cl)c1)[C@H]1CC2(CCC2)c2c1cnc1cc(F)nn21 (single isomer, unassigned) [Example 108, N-(5-chloro-6-(2H-1,2,3-triazol-2-yl)pyridin-3-yl)-2′-fluoro-6′,7′-dihydrospiro[cyclobutane-1,8′-cyclopenta[e]pyrazolo[1,5-a]pyrimidine]-6′-carboxamide]
IC50 [1]: 100 to 1000 nM | IC50 [2]: < 10 nM

CC1(C)CC(C(=O)Nc2cnc(OC(F)F)c(Cl)c2)c2cnc3cc(Cl)nn3c21 (single isomer, unassigned) [Example 68, 2-chloro-N-(5-chloro-6-(difluoromethoxy)pyridin-3-yl)-8,8-dimethyl-7,8-dihydro-6H-cyclopenta[e]pyrazolo[1,5-a]pyrimidine-6-carboxamide]
IC50 [1]: 100 to 1000 nM | IC50 [2]: < 10 nM

CC1(C)CC(C(=O)Nc2cnc(-n3nccn3)c(C#N)c2)c2cnc3cc(Cl)nn3c21 (single isomer, unassigned) [Example 107, 2-chloro-N-(5-cyano-6-(2H-1,2,3-triazol-2-yl)pyridin-3-yl)-8,8-dimethyl-7,8-dihydro-6H-cyclopenta[e]pyrazolo[1,5-a]pyrimidine-6-carboxamide]
IC50 [1]: 10 to 100 nM | IC50 [2]: < 10 nM

CC1(C)CC(C(=O)Nc2cnc(OC(F)F)c(Cl)c2)c2cnn3cc(Cl)nc3c21 (single isomer, unassigned) [Example 191, 2-chloro-N-(5-chloro-6-(difluoromethoxy)pyridin-3-yl)-9,9-dimethyl-8,9-dihydro-7H-cyclopenta[d]imidazo[1,2-b]pyridazine-7-carboxamide]
IC50 [1]: 100 to 1000 nM | IC50 [2]: < 10 nM

CC1(C)CC(C(=O)Nc2cnc(OC(F)F)c(C#N)c2)c2cnc3c(F)c(F)nn3c21 (single isomer, unassigned) [Example 91, N-(5-cyano-6-(difluoromethoxy)pyridin-3-yl)-2,3-difluoro-8,8-dimethyl-7,8-dihydro-6H-cyclopenta[e]pyrazolo[1,5-a]pyrimidine-6-carboxamide]
IC50 [1]: 100 to 1000 nM | IC50 [2]: 10 to 100 nM

CC1(C)C[C@H](C(=O)Nc2cnc(-n3nccn3)c(C(F)(F)F)c2)c2cnc3cc(Cl)nn3c21 (single isomer, unassigned) [Example 44, N-(6-(2H-1,2,3-triazol-2-yl)-5˜(trifluoromethyl)pyridin-3-yl)-2-chloro-8,8-dimethyl-7,8-dihydro-6H-cyclopenta[e]pyrazolo[1,5-a]pyrimidine-6-carboxamide]
IC50 [1]: 100 to 1000 nM | IC50 [2]: < 10 nM

C[C@@]1(C(F)(F)F)C[C@H](C(=O)Nc2cnc(-n3nccn3)c(C(F)F)c2)c2cnc3cc(Cl)nn3c21 (single isomer, unassigned) [Example 64, 2-chloro-N-(5-(difluoromethyl)-6-(2H-1,2,3-triazol-2-yl)pyridin-3-yl)-8-methyl-8-(trifluoromethyl)-7,8-dihydro-6H-cyclopenta[e]pyrazolo[1,5-a]pyrimidine-6-carboxamide]
IC50 [1]: 100 to 1000 nM | IC50 [2]: 10 to 100 nM

N#Cc1cc(NC(=O)C2CC3(CCC3)c3c2cnc2cc(F)nn32)cnc1OC(F)F (single isomer, unassigned) [Example 103, N-(5-cyano-6-(difluoromethoxy)pyridin-3-yl)-2′-fluoro-6′,7′-dihydrospiro[cyclobutane-1,8′-cyclopenta[e]pyrazolo[1,5-a]pyrimidine]-6′-carboxamide]
IC50 [1]: 100 to 1000 nM | IC50 [2]: < 10 nM

CC1(C)CC(C(=O)Nc2cnc(-n3nccn3)c(Cl)c2)c2cnc3c(F)c(F)nn3c21 (single isomer, unassigned) [Example 122, N-(5-chloro-6-(2H-1,2,3-triazol-2-yl)pyridin-3-yl)-2,3-difluoro-8,8-dimethyl-7,8-dihydro-6H-cyclopenta[e]pyrazolo[1,5-a]pyrimidine-6-carboxamide]
IC50 [1]: 100 to 1000 nM | IC50 [2]: < 10 nM

O=C(Nc1cnc(-n2nccn2)c(Cl)c1)C1CC2(CC2)c2c1cnc1cc(F)nn21 (single isomer, unassigned) [Example 95, N-(5-chloro-6-(2H-1,2,3-triazol-2-yl)pyridin-3-yl)-2-fluoro-6,7-dihydrospiro[cyclopenta[e]pyrazolo[1,5-a]pyrimidine-8,1′-cyclopropane]-6-carboxamide]
IC50 [1]: 100 to 1000 nM | IC50 [2]: 10 to 100 nM

Cn1ccc(-c2ncc(NC(=O)[C@@H]3CC(C)(C)c4c3cnc3cc(Cl)nn43)cc2Cl)n1 (single isomer, unassigned) [Example 10, 2-chloro-N-(5-chloro-6-(1-methyl-1H-pyrazol-3-yl)pyridin-3-yl)-8,8-dimethyl-7,8-dihydro-6H-cyclopenta[e]pyrazolo[1,5-a]pyrimidine-6-carboxamide]
IC50 [3]: ≥ 1000 nM

CC1(C)CC(C(=O)Nc2cnc(-n3nccn3)c(Cl)c2)c2cnc3cc(Cl)nn3c21 (single isomer, unassigned) [Example 1, 2-chloro-N-(5-chloro-6-(2H-1,2,3-triazol-2-yl)pyridin-3-yl)-8,8-dimethyl-7,8-dihydro-6H-cyclopenta[e]pyrazolo[1,5-a]pyrimidine-6-carboxamide]
IC50 [3]: 100 to 1000 nM

CC1(C)C[C@@H](C(=O)Nc2cnc(-n3nccn3)c(Cl)c2)c2cnc3cc(F)nn3c21 (single isomer, unassigned) [Example 32, N-(5-chloro-6-(2H-1,2,3-triazol-2-yl)pyridin-3-yl)-2-fluoro-8,8-dimethyl-7,8-dihydro-6H-cyclopenta[e]pyrazolo[1,5-a]pyrimidine-6-carboxamide]
IC50 [3]: ≥ 1000 nM
